Data: publication PMC11358092, “Caspofungin enhances the potency of rifampin against Gram-negative bacteria” (Frontiers in Microbiology, 2024)
Counter-ions that a name gives are not always drawn. Like-named read-outs stand apart in the source and are kept apart here.

What was measured:
[1] = system: E. coli MG1655; assay: High-throughput screening of FDA-approved drug library for antibiotic adjuvants (growth inhibition, OD600); format: cell-based, Escherichia coli
[2] = system: E. coli MG1655; assay: as above; format: cell-based, Escherichia coli; settings: library drug alone, LB medium, 96-well, 8 h static culture at 37°C, relative to PMBN (positive) and DMSO (negative) controls, %, table head prints no unit

| Compound | Growth inhibition, Compound [2] [%] | other results |
| --- | --- | --- |
| O=C(O)c1cn(C2CC2)c2cc(N3CCNCC3)c(F)cc2c1=O [Ciprofloxacin hydrochloride hydrate] | – | Growth inhibition, Compound [1]: 101% |
| O=C(O)c1cn(C2CC2)c2cc(N3CCNCC3)c(F)cc2c1=O [Ciprofloxacin hydrochloride] | – | Growth inhibition, Compound [1]: 98% |
| CCn1cc(C(=O)O)c(=O)c2cc3c(cc21)OCO3 [Oxolinic acid] | 108 | – |
| O=C(Nc1cc(Cl)cc(Cl)c1O)c1c(O)c(Cl)cc(Cl)c1Cl [Oxyclozanide] | 52 | – |
| CN(C)[C@@H]1C(O)=C(C(N)=O)C(=O)[C@@]2(O)C(O)=C3C(=O)c4c(O)cccc4[C@@](C)(O)[C@H]3[C@H](O)[C@@H]12 [Oxytetracycline Dihydrate] | 101 | – |
| CN(C)[C@@H]1C(O)=C(C(N)=O)C(=O)[C@@]2(O)C(O)=C3C(=O)c4c(O)cccc4[C@@](C)(O)[C@H]3[C@H](O)[C@@H]12 [Oxytetracycline Hydrochloride] | 106 | – |
| CN(C)[C@@H]1C(O)=C(C(N)=O)C(=O)[C@@]2(O)C(O)=C3C(=O)c4c(O)cccc4[C@@](C)(O)[C@H]3[C@H](O)[C@@H]12 [Oxytetracycline] | 66 | – |
| CNc1ncc(-c2ccc3c(=O)c(C(=O)O)cn(C4CC4)c3c2C)cc1C [Ozenoxacin] | 106 | – |
| NC[C@@H]1O[C@H](O[C@H]2[C@@H](O)[C@H](O[C@@H]3[C@@H](O)[C@H](N)C[C@H](N)[C@H]3O[C@H]3O[C@H](CO)[C@@H](O)[C@H](O)[C@H]3N)O[C@@H]2CO)[C@H](N)[C@@H](O)[C@@H]1O [Paromomycin Sulfate] | 108 | – |
| CS(=O)(=O)O.C[C@H]1COc2c(C3(N)CC3)c(F)cc3c(=O)c(C(=O)O)cn1c23 [Pazufloxacin Mesylate] | 109 | – |
| CC1(C)S[C@@H]2[C@H](NC(=O)Cc3ccccc3)C(=O)N2[C@H]1C(=O)O [Penicillin G sodium salt] | 38 | – |
| CCn1cc(C(=O)O)c(=O)c2cnc(N3CCNCC3)nc21 [Pipemidic acid] | 105 | – |
| CCN1CCN(C(=O)N[C@@H](C(=O)N[C@@H]2C(=O)N3[C@@H]2SC(C)(C)[C@@H]3C(=O)O)c2ccccc2)C(=O)C1=O [Piperacillin sodium salt] | 88 | – |
| Cc1cc(CC(C)CC(C)(C)C)n(O)c(=O)c1.NCCO (stereo not shown) [Piroctone olamine] | 54 | – |
| CC(C)(C)C(=O)OCOC(=O)[C@@H]1N2C(=O)[C@@H](/N=C/N3CCCCCC3)[C@H]2SC1(C)C [Pivmecillinam hydrochloride] | 72 | – |
| Nc1ccc2cc3ccc(N)cc3nc2c1 [Proflavine Hemisulfate] | 54 | – |
| Cc1oc(=O)oc1CN1CCN(c2cc3c(cc2F)c(=O)c(C(=O)O)c2n3C(C)S2)CC1 (stereo not shown) [Prulifloxacin] | 100 | – |
| C=C[C@]1(C)C[C@@H](OC(=O)CS[C@@H]2C[C@H]3CC[C@@H](C2)N3C)[C@]2(C)[C@H](C)CC[C@]3(CCC(=O)[C@H]32)[C@@H](C)[C@@H]1O [Retapamulin] | 97 | – |
| NC[C@H]1O[C@H](O[C@H]2[C@H](O[C@@H]3O[C@H](CO)[C@@H](O)[C@H]3O)[C@@H](O)[C@H](N)C[C@@H]2N)[C@H](N)[C@@H](O)[C@@H]1O.O=S(=O)(O)O [Ribostamycin sulfate] | 110 | – |
| CO[C@H]1/C=C/O[C@@]2(C)Oc3c(C)c(O)c4c(c3C2=O)C2=NC3(CCN(CC(C)C)CC3)NC2=C(NC(=O)/C(C)=C\C=C\[C@H](C)[C@H](O)[C@@H](C)[C@@H](O)[C@@H](C)[C@H](OC(C)=O)[C@@H]1C)C4=O [Rifabutin] | 94 | – |
| CO[C@H]1/C=C/O[C@@]2(C)Oc3c(C)c(O)c4c([O-])c(cc(O)c4c3C2=O)NC(=O)/C(C)=C\C=C\[C@H](C)[C@H](O)[C@@H](C)[C@@H](O)[C@@H](C)[C@H](OC(C)=O)[C@@H]1C.[Na+] [Rifamycin sodium salt] | 25 | – |
| CO[C@H]1/C=C/O[C@@]2(C)Oc3c(C)c(O)c4c(O)c(c(/C=N/N5CCN(C6CCCC6)CC5)c(O)c4c3C2=O)NC(=O)/C(C)=C\C=C\[C@H](C)[C@H](O)[C@@H](C)[C@@H](O)[C@@H](C)[C@H](OC(C)=O)[C@@H]1C [Rifapentine] | 99 | – |
| CO[C@H]1/C=C/O[C@@]2(C)Oc3c(C)c(O)c4c(O)c(c5c(nc6cc(C)ccn65)c4c3C2=O)NC(=O)/C(C)=C\C=C\[C@H](C)[C@H](O)[C@@H](C)[C@@H](O)[C@@H](C)[C@H](OC(C)=O)[C@@H]1C [Rifaximin] | 108 | – |
| O=C(Nc1ccc(Cl)cc1)c1cc(Br)ccc1O [Salifungin] | 67 | – |
| O=C(O)c1cn(-c2ccc(F)cc2)c2cc(N3CCNCC3)c(F)cc2c1=O [Sarafloxacin] | 109 | – |
| CN[C@@H]1[C@@H](O)[C@@H](O[C@@H]2[C@@H](O)[C@H](O[C@H]3OC(CN)=CC[C@H]3N)[C@@H](N)C[C@H]2N)OC[C@]1(C)O [Sisomicin Sulfate] | 105 | – |
| N[C@@H]1CN(c2c(F)cc3c(=O)c(C(=O)O)cn([C@@H]4C[C@@H]4F)c3c2Cl)CC12CC2.N[C@@H]1CN(c2c(F)cc3c(=O)c(C(=O)O)cn([C@@H]4C[C@@H]4F)c3c2Cl)CC12CC2.O.O.O [Sitafloxacin Hydrate] | 101 | – |
| CO/N=C(\C(=O)N[C@@H]1C(=O)N2C(C(=O)O)=C(CSC(=O)c3ccco3)CS[C@H]12)c1csc(N)n1 [Sodium ceftiofur] | 109 | – |

| Compound | Growth inhibition, Compound [2] [%] | other results |
| --- | --- | --- |
| C[C@@H]1CN(c2c(F)c(N)c3c(=O)c(C(=O)O)cn(C4CC4)c3c2F)C[C@H](C)N1 [Sparfloxacin] | 96 | – |
| CN[C@@H]1[C@H](O)[C@H](NC)[C@H]2O[C@@]3(O)C(=O)C[C@@H](C)O[C@H]3O[C@@H]2[C@H]1O.Cl.Cl.O.O.O.O.O [Spectinomycin dihydrochloride pentahydrate] | 96 | – |
| CN[C@@H]1[C@H](O)[C@H](NC)[C@H]2O[C@@]3(O)C(=O)C[C@@H](C)O[C@H]3O[C@@H]2[C@H]1O.Cl.Cl [Spectinomycin dihydrochloride] | 92 | – |
| Cc1cn([C@H]2C=C[C@@H](CO)O2)c(=O)[nH]c1=O [Stavudine] | 27 | – |
| [H]/N=C(/N)N[C@H]1[C@H](O)[C@@H](O)[C@H](O[C@@H]2O[C@@H](C)[C@](O)(C=O)[C@H]2O[C@@H]2O[C@@H](CO)[C@H](O)[C@@H](O)[C@@H]2NC)[C@@H](N/C(N)=N\[H])[C@@H]1O [Streptomycin sulfate] | 109 | – |
| CC1(C)S[C@@H]2[C@H](NC(=O)C(c3ccccc3)S(=O)(=O)O)C(=O)N2[C@H]1C(=O)O.[Na].[Na] (stereo partly shown) [Sulbenicillin Sodium] | 90 | – |
| CC1(C)S[C@@H]2[C@H](NC(=O)[C@H](N)c3ccccc3)C(=O)N2[C@H]1C(=O)OCOC(=O)[C@@H]1N2C(=O)C[C@H]2S(=O)(=O)C1(C)C [Sultamicillin Tosylate] | 93 | – |
| CC1(C)S[C@@H]2[C@H](NC(=O)[C@H](N)c3ccccc3)C(=O)N2[C@H]1C(=O)OCOC(=O)[C@@H]1N2C(=O)C[C@H]2S(=O)(=O)C1(C)C [Sultamicillin] | 106 | – |
| OB1OCc2cc(F)ccc21 [Tavaborole] | 91 | – |
| C[C@@H](O)[C@H]1C(=O)N2C(C(=O)O)=C(SC3CN(C4=NCCS4)C3)[C@H](C)[C@H]12 [Tebipenem] | 109 | – |
| [H]/N=C(/NCCCCC)N/N=C/c1c[nH]c2ccc(OC)cc12 [Tegaserod maleate] | 85 | – |
| CS(=O)(=O)c1ccc([C@@H](O)[C@@H](CO)NC(=O)C(Cl)Cl)cc1 [Thiamphenicol] | 66 | – |
| CC1(C)S[C@@H]2[C@H](NC(=O)[C@H](C(=O)O)c3ccsc3)C(=O)N2[C@H]1C(=O)O [Ticarcillin disodium] | 86 | – |
| CC1(C)S[C@@H]2[C@H](NC(=O)[C@H](C(=O)O)c3ccsc3)C(=O)N2[C@H]1C(=O)O [Ticarcillin sodium] | 86 | – |
| Nc1n[n+]([O-])c2ccccc2[n+]1[O-] [Tirapazamine] | 114 | – |
| NC[C@H]1O[C@H](O[C@H]2[C@H](O)[C@@H](O[C@H]3O[C@H](CO)[C@@H](O)[C@H](N)[C@H]3O)[C@H](N)C[C@@H]2N)[C@H](N)C[C@@H]1O [Tobramycin] | 107 | – |
| Cn1nnc(-c2ccc(-c3ccc(N4C[C@H](CO)OC4=O)cc3F)cn2)n1 [Torezolid] | 61 | – |
| Cl.NC1CCN(c2nc3c(cc2F)c(=O)c(C(=O)O)cn3-c2ccc(F)cc2F)C1 (stereo not shown) [Tosufloxacin hydrochloride] | 103 | – |
| Cc1ccc(S(=O)(=O)O)cc1.NC1CCN(c2nc3c(cc2F)c(=O)c(C(=O)O)cn3-c2ccc(F)cc2F)C1.O (stereo not shown) [Tosufloxacin p-Toluenesulfonate Hydrate] | 99 | – |
| NC1CCN(c2nc3c(cc2F)c(=O)c(C(=O)O)cn3-c2ccc(F)cc2F)C1 (stereo not shown) [Tosufloxacin] | 106 | – |
| Oc1cc(Cl)ccc1Oc1ccc(Cl)cc1Cl [Triclosan] | 79 | – |
| O=c1[nH]c(=O)n([C@H]2C[C@H](O)[C@@H](CO)O2)cc1C(F)(F)F [Trifluridine] | 27 | – |
| N[C@@H]1[C@H]2CN(c3nc4c(cc3F)c(=O)c(C(=O)O)cn4-c3ccc(F)cc3F)C[C@@H]12 [Trovafloxacin mesylate] | 116 | – |
| Cc1cn([C@H]2C[C@H](N=[N+]=[N-])[C@@H](CO)O2)c(=O)[nH]c1=O [Zidovudine] | 95 | – |
| c1cnc2c(c1)ccc1cccnc12 [o-Phenanthroline] | 79 | – |
| CCN1CCN(C(=O)N[C@@H](C(=O)N[C@@H]2C(=O)N3[C@@H]2SC(C)(C)[C@@H]3C(=O)O)c2ccccc2)C(=O)C1=O [piperacillin] | 107 | – |
| Polymyxin B sulfate (1404-26-8 free base) | – | Growth inhibition, Compound + rifampin ([1]; library drug with 2 μg/mL rifampin, LB medium, 96-well, 8 h static culture at 37°C, OD600, relative to PMBN (positive) and DMSO (negative) controls, %, table head prints no unit): 104% |
